Measured values taken from patent US6562851B2, “Substituted bicyclic compounds” (Aventis Pharma Limited, priority 1999, dated 2003).

melting point: 255.6 to 257.1 °C
Compound: Cc1ccccc1Nc1nc2cc(CC(=O)Nc3ccc(C(CC(=O)O)NC(=O)CCCC(=O)O)cc3)ccc2o1 (stereo not shown) [Example 4, 4-(2-Carboxy-1-{4-[2-(2-o-tolylamino-benzoxazol-5-yl)-acetylamino]-phenyl}-ethylcarbamoyl)-butyric Acid]
